Read-outs that look alike come from different tables or passages of the source.
Assays:
Assay type in all cases: binding
[1] = molecular target: T1, hSERT transporter (Homo sapiens, UniProt P31645); test: Human serotonin transporter (hSERT) scintillation proximity assay, competition with [3H]-Citalopram
T1 construct: expressed in transfected cells; membranes prepared
Source text: Screening for Human Serotonin Transporter (hSERT) Antagonists Using a Scintillation Proximity Assay (SPA)
The screening assay of this example was used to determine the affinity of ligands at the hSERT transporter by competition with [^3H]-Citalopram.
Scintillation Proximity Assay (SPA) works by bringing radioligand within close proximity to the bead's scintillant to stimulate light emission. In this assay, the receptor-containing membranes were pre-coupled to the SPA beads and the binding of the appropriate radioligand to the transporter was measured. The light emission was proportional to the amount of bound radioligand. Unbound radioligand produced no signal as a result of distant proximity to scintillant (lack of energy transfer).
Cells are released from culture flasks using PBS for 1-2 minutes. The cells were subsequently centrifuged at 1000 g's for 5 minutes and resuspended in PBS prior to being used in the membrane preparation.
(§1) Cell membranes were prepared using a membrane preparation buffer of 50 mM TRIS (pH 7.4). Cell membranes were prepared from a single cube (7.5×10^9 cells total). Cells were homogenized using a Polytron (setting medium for a 4 second burst). The homogenate was then centrifuged at 48,000×g for 15 minutes, the supernatant subsequently removed and discarded, and the pellet resuspended with fresh buffer. After a second centrifugation, the pellet was re-homogenized and brought to a final volume determined during the assay. Typically, membrane portions were aliquoted in 3 mg/ml (w:v). and stored at −80° C.
Compounds of the invention were diluted from 10 mM to 0.1 nM FAC (10 point curves, whole log/half log dilutions) via a Beckman Biomek 2000 using a serial dilution protocol. The test compounds were then transferred (20 μl/well) and the [^3H]-Citalopram radioligand was added at 50 μl/well. Membrane and beads were prepared to a ratio of 10 μg: 0.7 mg, with 0.7 mg PVT-WGA Amersham beads (Cat# RPQ0282V) added per well. 130 μl of the membrane: bead mixture was added to the assay plate.
The % inhibition was calculated for each compound tested [(Compound counts per minute (CPM) at maximum concentration-Non-Specific CPM)/Total CPM*100].
(§2) where max=total binding, min=non specific binding, x=concentration (M) of the tested compound and n=Hill slope. The inhibition dissociation constant (Ki) of each compound was determined according to the method of Cheng-Prusoff and then converted into negative logarithm (pKi) of the Ki.

[2] = molecular target: T2, hDAT (Homo sapiens, UniProt Q01959); test: Human dopamine transporter scintillation proximity assay, competition with [3H]-Vanoxerine
T2 construct: expressed in transfected cells; plated whole cells
Experimental: This assay was used to determine the affinity of ligands for the dopamine transporter by competition with [^3H]-Vanoxerine.
Cells were plated four hours prior to experiment by placing approximately 30,000 cells per well (in PBS) on white, opaque Cell-Tak coated 96 well plates. Extra buffer was apriated from the cell plates using an ELx405 plate washer.
Compounds of the invention were diluted from 10 mM to 0.1 nM FAC (10 point curves, whole log/half log dilutions) via a Beckman Biomek 2000 using a 10-point dilution protocol. The mixtures were allowed to stand at room temperature for 30 minutes, and were then counted on a Packard TopCount LCS, a generic SPA counting protocol settings, Count Time (min.): 0.40, Background Subtract: none, Half-Life Correction: none, Quench Indicator: tSIS, Platemap blank subtraction: none, Cross talk reduction: Off).
The % inhibition was calculated for each compound tested [(Compound CPM at maximum concentration-Non-Specific CPM)/Total CPM*100].
as §2

[3] = molecular target: T3, hNET transporter (Homo sapiens, UniProt P23975); test: Human norepinephrine transporter (hNET) scintillation proximity assay, competition with [3H]-Nisoxetine
T3 construct: expressed in transfected cells; membranes prepared
Experimental: This assay was used to determine the affinity of ligands for the hNET transporter by competition with [^3H]-Nisoxetine. As in the hSERT assay of the above example, receptor-containing membranes were pre-coupled to the SPA beads and the binding of the appropriate radioligand to the transporter was measured. The light emission was proportional to the amount of bound radioligand, with unbound radioligand producing no signal.
HEK-293 cells (Tatsumi et al., Eur. J. Pharmacol. 1997, 30, 249-258) stably expressing recombinant hNET (Clone: HEK-hNET #2) were maintained with media (DMEM hi glucose with 10% FBS, 300 μg/ml G418 and 2 mM L-Glutamine) and incubated at 37° C. with 5% CO2. Cells were released from culture flasks using PBS for 1-2 minutes. The cells were subsequently centrifuged at 1000 g's for 5 minutes and resuspended in PBS prior to being used in the membrane preparation.
as §1, with “(7.5×10^9cells” for “(7.5×10^9 cells”, “3-6 mg/mil” for “3 mg/ml”
^3[H] […] Compounds of the invention were diluted from 10 mM to 0.1 nM FAC (10 point curves, whole log /half log dilutions) via a Beckman Biomek 2000 using a serial dilution protocol. The test compounds were then transferred (20 μl/well) and the radioligand was added at 50 μl/well. Membrane and beads were prepared to a ratio of 10 μg: 0.7 mg, with 0.7 mg PVT-WGA Amersham beads (Cat# RPQ0282V) added per well. 130 μl of the membrane: bead mixture was added to the assay plate. The mixtures were allowed to stand at room temperature for one hour, and were then counted on a Packard TopCount LCS, a generic SPA counting protocol settings (Energy Range: Low, Efficiency Mode: Normal, Region A: 1.50-35.00, Region B: 1.50-256.00, Count Time (min.): 0.40, Background Subtract: none, Half-Life Correction: no, Quench Indicator: tSIS, Platemap blank subtraction: No, Cross talk reduction: Off).
The % inhibition was calculated for each compound tested [(Compound CPM at maximum concentration-Non-Specific CPM)/Total CPM*100]. The concentration producing 50% inhibition (IC50) was determined using an iterative non-linear curve fitting technique with Activity Base/Xlfit using the following equation:
as §2

[4] = Table 1, read-out: pIC50 SERT (converted)
[5] = Table 1, read-out: pIC50 DAT (converted)
[6] = Table 1, read-out: pIC50 NET (converted)

T1 sequence (P31645 whole entry): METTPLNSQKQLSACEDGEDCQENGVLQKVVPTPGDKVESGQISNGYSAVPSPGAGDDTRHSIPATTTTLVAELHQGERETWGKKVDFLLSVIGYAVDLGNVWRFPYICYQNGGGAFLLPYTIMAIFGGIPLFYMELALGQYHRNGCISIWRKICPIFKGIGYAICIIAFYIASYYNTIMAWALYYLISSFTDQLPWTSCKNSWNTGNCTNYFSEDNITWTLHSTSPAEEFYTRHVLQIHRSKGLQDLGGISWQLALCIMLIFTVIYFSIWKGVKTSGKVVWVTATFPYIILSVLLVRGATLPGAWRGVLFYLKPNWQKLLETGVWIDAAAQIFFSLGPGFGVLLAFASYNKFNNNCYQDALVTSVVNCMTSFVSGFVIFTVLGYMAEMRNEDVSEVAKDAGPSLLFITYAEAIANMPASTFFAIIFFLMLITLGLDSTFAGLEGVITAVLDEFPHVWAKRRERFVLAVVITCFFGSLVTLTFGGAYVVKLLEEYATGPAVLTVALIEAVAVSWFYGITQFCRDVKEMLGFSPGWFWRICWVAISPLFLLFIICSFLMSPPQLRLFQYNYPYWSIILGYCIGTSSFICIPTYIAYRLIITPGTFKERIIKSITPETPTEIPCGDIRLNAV
T2 sequence (Q01959 whole entry): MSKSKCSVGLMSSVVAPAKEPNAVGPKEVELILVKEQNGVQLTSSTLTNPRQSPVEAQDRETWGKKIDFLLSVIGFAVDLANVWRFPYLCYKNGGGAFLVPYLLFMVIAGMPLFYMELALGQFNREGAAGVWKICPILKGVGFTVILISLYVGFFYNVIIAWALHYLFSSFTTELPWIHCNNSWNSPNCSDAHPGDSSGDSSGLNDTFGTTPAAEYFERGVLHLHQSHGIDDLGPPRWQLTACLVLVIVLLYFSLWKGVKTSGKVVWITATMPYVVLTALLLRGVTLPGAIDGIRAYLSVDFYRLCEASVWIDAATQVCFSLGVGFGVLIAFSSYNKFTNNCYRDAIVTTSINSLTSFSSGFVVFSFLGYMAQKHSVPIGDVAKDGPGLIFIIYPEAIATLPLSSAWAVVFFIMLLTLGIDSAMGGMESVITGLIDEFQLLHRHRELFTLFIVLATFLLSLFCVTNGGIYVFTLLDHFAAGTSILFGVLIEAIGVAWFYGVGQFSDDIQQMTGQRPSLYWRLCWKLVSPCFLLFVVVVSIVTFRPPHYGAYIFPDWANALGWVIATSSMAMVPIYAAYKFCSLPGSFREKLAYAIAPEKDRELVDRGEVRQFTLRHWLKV
T3 sequence (P23975 whole entry): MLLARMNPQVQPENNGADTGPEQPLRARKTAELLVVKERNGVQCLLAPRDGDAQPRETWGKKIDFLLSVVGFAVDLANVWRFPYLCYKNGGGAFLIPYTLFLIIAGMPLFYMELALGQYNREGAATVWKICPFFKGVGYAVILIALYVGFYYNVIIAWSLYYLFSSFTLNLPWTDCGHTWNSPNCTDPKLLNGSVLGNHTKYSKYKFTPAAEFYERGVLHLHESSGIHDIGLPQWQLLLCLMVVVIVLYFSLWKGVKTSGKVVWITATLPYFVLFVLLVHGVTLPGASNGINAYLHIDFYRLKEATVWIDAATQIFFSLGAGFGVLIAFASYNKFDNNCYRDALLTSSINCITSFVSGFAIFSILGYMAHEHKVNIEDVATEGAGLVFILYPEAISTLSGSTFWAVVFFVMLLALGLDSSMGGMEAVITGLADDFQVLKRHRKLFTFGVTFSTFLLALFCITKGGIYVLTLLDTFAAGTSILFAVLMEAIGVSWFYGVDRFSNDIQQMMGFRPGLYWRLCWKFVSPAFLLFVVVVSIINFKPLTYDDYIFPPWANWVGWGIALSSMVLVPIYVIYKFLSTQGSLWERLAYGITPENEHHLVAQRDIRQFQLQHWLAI

IC50 [1, 4] [nM]	Structure (SMILES)	IC50 [2, 5] [nM]	IC50 [3, 6] [nM]	IC50 [1] [nM]	IC50 [2] [nM]	IC50 [3] [nM]
3.47	Cc1ccc(C(=O)C2(CCC(C)C)CCNCC2)cc1Cl [Compound 38, (3-Chloro-4-methyl-phenyl)-[4-(3-methyl-butyl)-piperidin-4-yl]-methanone]	14.8	135			
69.2	CCCC1(C(=O)c2ccc(Cl)cc2Oc2ccccc2)CCNCC1 [Compound 40, (4-Chloro-2-phenoxy-phenyl)-(4-propyl-piperidin-4-yl)-methanone]	1480	27.5			
	CC(C)(C)CC[C@]1(C(=O)c2cc(F)c(N)c(Cl)c2)CCNC1 [Compound 25, (4-Amino-3-chloro-5-fluoro-phenyl)-[(S)-3-(3,3-dimethyl-butyl)-pyrrolidin-3-yl]-methanone]		0.977	1.74	0.55	
	CC(C)C[C@@]1(C(=O)c2ccc(Cl)c(Cl)c2)CC[C@@H]2CC[C@H]1N2 [Compound 47, (3,4-Dichloro-phenyl)-((1R,2S,5R)-2-isobutyl-8-aza-bicyclo[3.2.1]oct-2-yl)-methanone]		200	7.94	24	
	CNc1ccc(C(=O)C2(CC(C)C)CCNCC2)cc1Cl [Compound 44, (3-Chloro-4-methylamino-phenyl)-(4-isobutyl-piperidin-4-yl)-methanone]		51.3	0.724	57.5	
	CCCC1(C(=O)c2ccc(Cl)c(OCCC(C)(C)C)c2)CCNC1 (stereo not drawn) [Compound 11, [4-Chloro-3-(3,3-dimethyl-butoxy)-phenyl]-(3-propyl-pyrrolidin-3-yl)-methanone]	1480	631	52.5		
	COC(C)(C)CCC1(C(=O)c2cc(F)c3[nH]ccc3c2)CCNC1 (stereo not drawn) [Compound 6]		4.79	1.07	15.5	
	CC(C)(C)CCC1(C(=O)c2cc(Cl)c(N)c(C(F)(F)F)c2)CCNC1 (stereo not drawn) [Compound 7, (4-Amino-3-chloro-5-trifluoromethyl-phenyl)-[3-(3,3-dimethyl-butyl)-pyrrolidin-3-yl]-methanone]	955		38		15.8
	CC(C)CCC1(C(=O)c2ccc(Cl)c(Oc3ccccc3)c2)CCNC1 (stereo not drawn) [Compound 12]	1480		43.7		12
	CCC1(C(=O)c2ccc(Cl)c(Oc3ccccc3)c2)CCNC1 (stereo not drawn) [Compound 19, (4-Chloro-3-phenoxy-phenyl)-(3-ethyl-pyrrolidin-3-yl)-methanone]		26.3	57.5	7.59	
	CC(C)C[C@]1(C(=O)c2ccc(N)c(Cl)c2)CCNC1 [Compound 28, (4-Amino-3-chloro-phenyl)-((S)-3-isobutyl-pyrrolidin-3-yl)-methanone]		3.02	0.117	0.832	
1.15	O=C(c1ccc(Cl)c(Cl)c1)C1(CC2CCOCC2)CCNCC1 [Compound 41, (3,4-Dichloro-phenyl)-[4-(tetrahydro-pyran-4-ylmethyl)-piperidin-4-yl]-methanone]	7.94	209			
	CCCC1(C(=O)c2ccc(Cl)c(Oc3ccccc3)c2)CCNC1 (stereo in doubt) [Compound 30, (4-Chloro-3-phenoxy-phenyl)-((R)-3-propyl-pyrrolidin-3-yl)-methanone]		24	18.6	2.34	
	CC(C)(C)CCC1(C(=O)c2ccc(Cl)c(Cl)c2)CCCNC1 (stereo not drawn) [Compound 56, (3,4-Dichloro-phenyl)-[3-(3,3-dimethyl-butyl)-piperidin-3-yl]-methanone]		32.4	17.4	15.1	
